PMC12586182 (Frontiers in Oncology, 2025)

How the values were obtained:
Test in all cases: Kinase panel profiling at 1 µmol/L (mobility shift assay, Carna)
Format in all cases: biochemical
Conditions in all cases: 1 µmol/L of BTK inhibitor
HER2 = target: T1, HER2 (Homo sapiens, UniProt P04626)
T1 construct: purchased Carna Biosciences

IGF1R = target: T2, IGF1R (Homo sapiens, UniProt P08069)
T2 construct: purchased Carna Biosciences

INSR = target: T3, INSR (Homo sapiens, UniProt P06213)
T3 construct: purchased Carna Biosciences

MET = target: T4, MET (Homo sapiens, UniProt P08581)
T4 construct: purchased Carna Biosciences

AurA/TPX2 = target: T5, AurA/TPX2 (Homo sapiens, UniProt O14965)
T5 construct: purchased Carna Biosciences
T5 sequence (O14965 1-403): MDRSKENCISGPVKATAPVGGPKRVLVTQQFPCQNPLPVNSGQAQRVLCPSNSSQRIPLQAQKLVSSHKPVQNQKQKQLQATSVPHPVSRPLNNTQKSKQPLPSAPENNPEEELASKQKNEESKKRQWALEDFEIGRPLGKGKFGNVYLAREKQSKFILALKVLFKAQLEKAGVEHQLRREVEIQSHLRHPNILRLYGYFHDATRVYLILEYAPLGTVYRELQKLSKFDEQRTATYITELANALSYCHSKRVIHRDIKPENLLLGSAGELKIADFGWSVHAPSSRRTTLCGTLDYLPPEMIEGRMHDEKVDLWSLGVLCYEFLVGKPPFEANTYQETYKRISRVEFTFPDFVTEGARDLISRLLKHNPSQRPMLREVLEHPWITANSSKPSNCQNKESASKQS
T5 sequence (Q9ULW0 1-43 partner limits assumed): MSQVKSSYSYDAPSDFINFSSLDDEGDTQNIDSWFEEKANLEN

CDC7/ASK = target: T6, CDC7/ASK (Homo sapiens, UniProt O00311)
T6 construct: purchased Carna Biosciences

CDK4/CycD3 = target: T7, CDK4/CycD3 (Homo sapiens, UniProt P11802)
T7 construct: purchased Carna Biosciences

CDK6/CycD3 = target: T8, CDK6/CycD3 (Homo sapiens, UniProt Q00534)
T8 construct: purchased Carna Biosciences

CDK7/CycH/MAT1 = target: T9, CDK7/CycH/MAT1 (Homo sapiens, UniProt P50613)
T9 construct: purchased Carna Biosciences

CLK2 = target: T10, CLK2 (Homo sapiens, UniProt P49760)
T10 construct: purchased Carna Biosciences

CLK3 = target: T11, CLK3 (Homo sapiens, UniProt P49761)
T11 construct: purchased Carna Biosciences

DCAMKL2 = target: T12, DCAMKL2 (Homo sapiens, UniProt Q8N568)
T12 construct: purchased Carna Biosciences
T12 sequence (Q8N568 1-766): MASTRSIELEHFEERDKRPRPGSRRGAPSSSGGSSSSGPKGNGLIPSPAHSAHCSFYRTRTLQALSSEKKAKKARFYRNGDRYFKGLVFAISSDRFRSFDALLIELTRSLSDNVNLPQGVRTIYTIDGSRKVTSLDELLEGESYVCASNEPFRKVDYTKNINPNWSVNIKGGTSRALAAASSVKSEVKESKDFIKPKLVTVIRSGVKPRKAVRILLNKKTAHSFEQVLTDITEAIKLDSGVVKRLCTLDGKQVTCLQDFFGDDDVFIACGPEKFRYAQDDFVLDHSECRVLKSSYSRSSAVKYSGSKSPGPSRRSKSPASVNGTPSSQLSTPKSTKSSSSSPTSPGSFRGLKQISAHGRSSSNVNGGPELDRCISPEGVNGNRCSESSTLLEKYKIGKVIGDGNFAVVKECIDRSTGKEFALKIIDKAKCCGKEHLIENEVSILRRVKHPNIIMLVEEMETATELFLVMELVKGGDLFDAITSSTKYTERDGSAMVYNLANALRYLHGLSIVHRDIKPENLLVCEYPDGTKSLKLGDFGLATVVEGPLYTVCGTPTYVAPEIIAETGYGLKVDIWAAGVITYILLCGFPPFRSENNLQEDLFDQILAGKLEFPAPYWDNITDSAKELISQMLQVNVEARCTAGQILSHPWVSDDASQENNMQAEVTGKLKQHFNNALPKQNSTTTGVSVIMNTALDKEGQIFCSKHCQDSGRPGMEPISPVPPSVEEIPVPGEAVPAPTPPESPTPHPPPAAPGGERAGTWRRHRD

GSK3β = target: T13, GSK3β (Homo sapiens, UniProt P49841)
T13 construct: purchased Carna Biosciences

IRAK1 = target: T14, IRAK1 (Homo sapiens, UniProt P51617)
T14 construct: purchased Carna Biosciences

NDR1 = target: T15, NDR1 (Homo sapiens, UniProt Q15208)
T15 construct: purchased Carna Biosciences

PIM2 = target: T16, PIM2 (Homo sapiens, UniProt Q9P1W9)
T16 construct: purchased Carna Biosciences

PKCα = target: T17, PKCα (Homo sapiens, UniProt P17252)
T17 construct: purchased Carna Biosciences

ROCK2 = target: T18, ROCK2 (Homo sapiens, UniProt O75116)
T18 construct: purchased Carna Biosciences

TSSK1 = target: T19, TSSK1 (Homo sapiens, UniProt Q9BXA7)
T19 construct: purchased Carna Biosciences
T19 sequence (Q9BXA7 1-367): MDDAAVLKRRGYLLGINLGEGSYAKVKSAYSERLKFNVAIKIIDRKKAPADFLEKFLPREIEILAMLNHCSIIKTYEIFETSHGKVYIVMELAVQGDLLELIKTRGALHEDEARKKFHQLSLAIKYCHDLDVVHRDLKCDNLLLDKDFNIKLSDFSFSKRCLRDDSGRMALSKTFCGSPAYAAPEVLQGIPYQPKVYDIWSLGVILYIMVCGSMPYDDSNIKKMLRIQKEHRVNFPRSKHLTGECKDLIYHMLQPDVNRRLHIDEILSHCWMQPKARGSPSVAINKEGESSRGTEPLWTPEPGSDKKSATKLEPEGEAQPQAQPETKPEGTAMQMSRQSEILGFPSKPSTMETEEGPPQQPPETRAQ

WNK2 = target: T20, WNK2 (Homo sapiens, UniProt Q9Y3S1)
T20 construct: purchased Carna Biosciences

T16 sequence (Q9P1W9 whole entry): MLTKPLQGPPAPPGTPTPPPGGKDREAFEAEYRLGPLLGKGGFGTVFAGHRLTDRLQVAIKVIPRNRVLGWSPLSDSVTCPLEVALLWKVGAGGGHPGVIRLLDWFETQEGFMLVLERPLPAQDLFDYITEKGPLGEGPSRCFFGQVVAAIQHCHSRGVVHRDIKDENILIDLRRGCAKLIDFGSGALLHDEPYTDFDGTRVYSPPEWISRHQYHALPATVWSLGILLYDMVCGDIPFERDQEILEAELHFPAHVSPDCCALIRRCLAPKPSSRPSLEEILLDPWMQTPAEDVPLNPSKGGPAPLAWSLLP
T15 sequence (Q15208 whole entry): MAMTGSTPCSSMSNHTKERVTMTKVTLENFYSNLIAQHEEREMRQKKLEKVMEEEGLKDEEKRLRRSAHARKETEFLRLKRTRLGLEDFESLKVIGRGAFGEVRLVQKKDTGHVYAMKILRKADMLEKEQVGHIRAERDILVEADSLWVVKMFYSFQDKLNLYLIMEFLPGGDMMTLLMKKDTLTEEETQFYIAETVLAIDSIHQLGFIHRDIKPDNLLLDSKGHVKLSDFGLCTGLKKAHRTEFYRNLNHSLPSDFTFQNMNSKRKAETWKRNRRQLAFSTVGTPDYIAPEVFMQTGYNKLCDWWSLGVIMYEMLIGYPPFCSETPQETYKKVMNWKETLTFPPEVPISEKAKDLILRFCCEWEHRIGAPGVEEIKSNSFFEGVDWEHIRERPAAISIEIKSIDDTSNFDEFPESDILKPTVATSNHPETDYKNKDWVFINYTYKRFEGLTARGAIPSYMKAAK
T9 sequence (P50613 whole entry): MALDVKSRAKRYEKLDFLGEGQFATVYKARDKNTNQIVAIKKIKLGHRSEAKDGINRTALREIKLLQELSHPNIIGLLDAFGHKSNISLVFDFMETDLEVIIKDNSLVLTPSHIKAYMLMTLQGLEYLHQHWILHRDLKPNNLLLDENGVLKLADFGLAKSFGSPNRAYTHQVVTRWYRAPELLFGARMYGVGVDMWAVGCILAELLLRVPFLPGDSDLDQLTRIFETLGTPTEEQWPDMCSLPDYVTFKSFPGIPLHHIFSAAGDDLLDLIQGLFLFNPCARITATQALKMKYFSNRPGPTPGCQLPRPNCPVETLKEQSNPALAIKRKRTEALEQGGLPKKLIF
T9 sequence (P51946 whole entry partner): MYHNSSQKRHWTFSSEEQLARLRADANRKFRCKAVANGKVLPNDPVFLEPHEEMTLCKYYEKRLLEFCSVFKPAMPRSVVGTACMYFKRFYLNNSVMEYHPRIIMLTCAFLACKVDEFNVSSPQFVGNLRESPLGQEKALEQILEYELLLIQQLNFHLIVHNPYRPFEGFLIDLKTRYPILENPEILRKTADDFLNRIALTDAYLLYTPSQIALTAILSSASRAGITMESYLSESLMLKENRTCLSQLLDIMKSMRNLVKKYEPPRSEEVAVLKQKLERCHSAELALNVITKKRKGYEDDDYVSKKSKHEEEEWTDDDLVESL
T9 sequence (P51948 whole entry partner): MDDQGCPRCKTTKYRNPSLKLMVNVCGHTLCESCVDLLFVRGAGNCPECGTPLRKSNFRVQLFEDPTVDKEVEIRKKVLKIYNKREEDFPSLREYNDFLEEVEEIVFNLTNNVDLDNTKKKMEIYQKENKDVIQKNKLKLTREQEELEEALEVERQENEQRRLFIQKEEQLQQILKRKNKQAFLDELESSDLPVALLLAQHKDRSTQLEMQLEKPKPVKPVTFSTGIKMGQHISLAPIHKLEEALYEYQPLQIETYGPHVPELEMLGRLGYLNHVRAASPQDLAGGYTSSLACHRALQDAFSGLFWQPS
T18 sequence (O75116 whole entry): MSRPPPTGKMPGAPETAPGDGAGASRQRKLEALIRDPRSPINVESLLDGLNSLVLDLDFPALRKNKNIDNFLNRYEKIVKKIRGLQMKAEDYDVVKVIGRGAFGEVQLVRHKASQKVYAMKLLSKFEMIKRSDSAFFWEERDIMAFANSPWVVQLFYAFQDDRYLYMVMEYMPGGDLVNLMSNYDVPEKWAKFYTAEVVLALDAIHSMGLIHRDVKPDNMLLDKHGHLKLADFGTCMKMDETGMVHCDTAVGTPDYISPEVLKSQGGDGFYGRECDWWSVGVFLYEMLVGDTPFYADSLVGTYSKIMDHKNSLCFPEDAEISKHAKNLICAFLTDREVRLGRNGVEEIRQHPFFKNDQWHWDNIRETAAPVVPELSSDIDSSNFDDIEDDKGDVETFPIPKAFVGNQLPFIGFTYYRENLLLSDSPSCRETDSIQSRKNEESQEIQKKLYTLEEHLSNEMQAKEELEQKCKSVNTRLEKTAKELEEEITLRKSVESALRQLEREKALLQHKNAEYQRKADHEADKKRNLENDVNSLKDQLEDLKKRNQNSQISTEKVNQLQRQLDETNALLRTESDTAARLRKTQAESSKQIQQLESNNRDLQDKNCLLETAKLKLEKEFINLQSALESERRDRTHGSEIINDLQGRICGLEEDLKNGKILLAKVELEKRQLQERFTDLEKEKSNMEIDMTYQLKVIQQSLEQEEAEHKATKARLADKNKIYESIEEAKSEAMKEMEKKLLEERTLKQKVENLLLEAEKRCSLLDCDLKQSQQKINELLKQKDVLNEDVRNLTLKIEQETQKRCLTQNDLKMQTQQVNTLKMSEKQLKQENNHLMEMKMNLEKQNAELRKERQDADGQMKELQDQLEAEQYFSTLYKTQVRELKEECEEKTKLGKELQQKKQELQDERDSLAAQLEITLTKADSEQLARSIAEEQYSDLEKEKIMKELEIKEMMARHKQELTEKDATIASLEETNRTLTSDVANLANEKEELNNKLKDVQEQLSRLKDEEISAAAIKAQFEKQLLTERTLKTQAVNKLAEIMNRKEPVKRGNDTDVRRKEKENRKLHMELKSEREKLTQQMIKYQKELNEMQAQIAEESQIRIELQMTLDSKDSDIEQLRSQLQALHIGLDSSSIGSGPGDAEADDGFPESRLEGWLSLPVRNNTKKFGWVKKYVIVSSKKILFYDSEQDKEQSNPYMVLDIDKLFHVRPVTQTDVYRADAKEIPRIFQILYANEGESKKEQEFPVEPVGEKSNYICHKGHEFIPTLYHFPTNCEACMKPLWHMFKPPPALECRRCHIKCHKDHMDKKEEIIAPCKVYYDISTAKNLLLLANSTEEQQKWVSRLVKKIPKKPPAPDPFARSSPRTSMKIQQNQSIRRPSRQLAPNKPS
T8 sequence (Q00534 whole entry): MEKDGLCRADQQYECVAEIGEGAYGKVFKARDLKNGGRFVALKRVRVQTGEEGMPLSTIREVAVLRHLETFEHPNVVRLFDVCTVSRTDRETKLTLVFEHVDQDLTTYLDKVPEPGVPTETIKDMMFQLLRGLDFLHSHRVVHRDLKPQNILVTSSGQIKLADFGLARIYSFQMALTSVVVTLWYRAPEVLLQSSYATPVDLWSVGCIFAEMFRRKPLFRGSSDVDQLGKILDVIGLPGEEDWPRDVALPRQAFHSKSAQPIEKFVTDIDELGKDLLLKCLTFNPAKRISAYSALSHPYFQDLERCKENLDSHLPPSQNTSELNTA
T8 sequence (P30281 whole entry partner): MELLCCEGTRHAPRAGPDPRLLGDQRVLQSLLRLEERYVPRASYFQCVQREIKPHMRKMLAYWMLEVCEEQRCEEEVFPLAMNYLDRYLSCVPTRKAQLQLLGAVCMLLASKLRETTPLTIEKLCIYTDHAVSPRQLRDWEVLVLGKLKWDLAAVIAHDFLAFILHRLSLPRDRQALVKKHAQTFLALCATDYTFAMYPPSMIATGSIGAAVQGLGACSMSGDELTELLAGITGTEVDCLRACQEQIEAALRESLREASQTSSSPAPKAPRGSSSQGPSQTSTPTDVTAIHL
T10 sequence (P49760 whole entry): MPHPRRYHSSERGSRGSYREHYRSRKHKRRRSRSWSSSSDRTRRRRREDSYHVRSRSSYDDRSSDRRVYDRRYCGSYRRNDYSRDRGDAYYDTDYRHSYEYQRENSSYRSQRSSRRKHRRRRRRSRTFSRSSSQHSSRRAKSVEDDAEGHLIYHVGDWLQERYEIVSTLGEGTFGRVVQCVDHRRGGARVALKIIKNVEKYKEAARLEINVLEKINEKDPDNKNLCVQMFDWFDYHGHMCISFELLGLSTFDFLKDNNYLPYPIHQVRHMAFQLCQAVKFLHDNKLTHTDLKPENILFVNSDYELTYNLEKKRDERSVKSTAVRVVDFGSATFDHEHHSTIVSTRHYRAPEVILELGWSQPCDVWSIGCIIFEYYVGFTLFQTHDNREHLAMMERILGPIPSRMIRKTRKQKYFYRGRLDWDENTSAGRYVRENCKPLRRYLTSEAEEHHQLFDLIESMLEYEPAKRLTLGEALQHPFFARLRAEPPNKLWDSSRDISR
T14 sequence (P51617 whole entry): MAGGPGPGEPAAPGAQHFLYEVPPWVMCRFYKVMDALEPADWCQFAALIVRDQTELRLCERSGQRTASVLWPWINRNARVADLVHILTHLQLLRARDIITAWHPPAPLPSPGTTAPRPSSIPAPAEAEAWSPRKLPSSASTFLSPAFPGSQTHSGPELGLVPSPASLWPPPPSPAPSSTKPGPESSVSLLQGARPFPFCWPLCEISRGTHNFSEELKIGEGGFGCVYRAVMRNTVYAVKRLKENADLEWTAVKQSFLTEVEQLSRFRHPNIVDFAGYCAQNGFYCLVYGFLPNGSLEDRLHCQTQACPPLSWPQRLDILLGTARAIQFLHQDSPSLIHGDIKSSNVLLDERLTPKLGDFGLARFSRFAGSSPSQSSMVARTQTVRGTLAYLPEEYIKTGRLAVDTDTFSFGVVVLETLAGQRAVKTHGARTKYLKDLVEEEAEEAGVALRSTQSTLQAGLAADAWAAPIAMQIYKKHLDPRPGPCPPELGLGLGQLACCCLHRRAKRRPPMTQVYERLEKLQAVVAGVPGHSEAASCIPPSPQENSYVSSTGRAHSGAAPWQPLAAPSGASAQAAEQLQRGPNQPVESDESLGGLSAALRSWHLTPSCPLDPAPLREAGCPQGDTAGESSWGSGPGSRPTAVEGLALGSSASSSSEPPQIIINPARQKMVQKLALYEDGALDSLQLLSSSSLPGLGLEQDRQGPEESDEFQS

SMILES	Percentage inhibition of kinase enzyme activity (HER2) [%]	Percentage inhibition of kinase enzyme activity (IGF1R) [%]	Percentage inhibition of kinase enzyme activity (INSR) [%]	Percentage inhibition of kinase enzyme activity (MET) [%]	Percentage inhibition of kinase enzyme activity (AurA/TPX2) [%]	Percentage inhibition of kinase enzyme activity (CDC7/ASK) [%]	Percentage inhibition of kinase enzyme activity (CDK4/CycD3) [%]	Percentage inhibition of kinase enzyme activity (CDK6/CycD3) [%]	Percentage inhibition of kinase enzyme activity (CDK7/CycH/MAT1) [%]	Percentage inhibition of kinase enzyme activity (CLK2) [%]	Percentage inhibition of kinase enzyme activity (CLK3) [%]	Percentage inhibition of kinase enzyme activity (DCAMKL2) [%]	Percentage inhibition of kinase enzyme activity (GSK3β) [%]	Percentage inhibition of kinase enzyme activity (IRAK1) [%]	Percentage inhibition of kinase enzyme activity (NDR1) [%]	Percentage inhibition of kinase enzyme activity (PIM2) [%]	Percentage inhibition of kinase enzyme activity (PKCα) [%]	Percentage inhibition of kinase enzyme activity (ROCK2) [%]	Percentage inhibition of kinase enzyme activity (TSSK1) [%]	Percentage inhibition of kinase enzyme activity (WNK2) [%]
CC#CC(=O)N1CCC[C@H]1c1nc(-c2ccc(C(=O)Nc3ccccn3)cc2)c2c(N)nccn12 [acalabrutinib]	16.11	0.47	-4.67	3.91	-4.71	-1.64	-13.28	2.94	5.25	-6.97	-14.91	4.63	-2.39	-7.06	-6.32	-16.50	-16.89	-2.29	-7.15	0.79
C=CC(=O)N1CCC[C@@H](n2nc(-c3ccc(Oc4ccccc4)cc3)c3c(N)ncnc32)C1 [ibrutinib]	100.31	7.45	9.51	11.55	-2.33	-0.99	4.00	4.32	4.94	–	–	-9.45	-4.00	-10.80	2.65	-5.09	0.74	3.74	9.10	5.67
O=C(c1ccc(Oc2ccccc2)cc1Cl)c1c[nH]c2ncnc(N[C@@H]3CC[C@@H](CO)OC3)c12 [nemtabrutinib]	99.89	99.20	95.91	42.98	4.98	-1.26	0.33	0.23	-12.60	56.28	-2.19	-1.82	-7.92	-0.39	3.34	-5.51	-0.64	15.55	5.68	47.36
COc1ccc(F)cc1C(=O)NCc1ccc(-c2nn([C@@H](C)C(F)(F)F)c(N)c2C(N)=O)cc1 [pirtobrutinib]	35.83	0.28	6.62	1.44	1.13	-5.67	4.05	-5.97	-4.77	10.54	14.87	0.08	-23.01	-6.46	1.20	-1.91	11.69	1.18	-0.58	11.58
C=CC(=O)N1CCC([C@@H]2CCNc3c(C(N)=O)c(-c4ccc(Oc5ccccc5)cc4)nn32)CC1 [zanubrutinib]	98.58	4.03	2.69	1.41	–	–	–	–	–	–	–	–	–	–	–	–	–	–	–	–
